For 21 molecules, IC50 results are on record in patent US8158636B2, “Compounds and methods for kinase modulation, and indications therefor” (Plexxikon Inc., priority 2008, dated 2012).

What all share (format): biochemical
One assay deals with Fms (Homo sapiens, UniProt P07333). Put plainly: Kinase activity assay, Fms. As to conditions: Table 1h; read-out: activity toward kinase Fms, IC50. The text has this: (§1) Assays for the activity of kinases, including, but not limited to, Fms, Kit, B-Raf, B-Raf V600E, c-Raf-1, and TrkA are known in the art, for example as described in US Patent Publication Number US20070032519 and U.S. patent application Ser. No. 11/473,347 (see also, PCT publication WO2007002433), the disclosures of which are hereby incorporated by reference with respect to such assays.

The target of another assay is B-Raf V600E (Homo sapiens, UniProt P15056, V600E). Put plainly: Kinase activity assay, B-Raf V600E. To be noted: Table 1c; read-out: activity toward kinase B-Raf V600E, IC50.
From the text: as §1

Another assay has as its target Kdr (Homo sapiens, UniProt P35968). As to the kind of experiment: Kinase activity assay, Kdr. To be noted: Table 1i; read-out: activity toward kinase Kdr, IC50.
From the text: as §1

Another assay deals with Kit (Homo sapiens, UniProt P10721). As to the kind of experiment: Kinase activity assay, Kit. To be noted: Table 1j; read-out: activity toward kinase Kit, IC50.
From the text: as §1

Chain of Fms (P07333 20-972): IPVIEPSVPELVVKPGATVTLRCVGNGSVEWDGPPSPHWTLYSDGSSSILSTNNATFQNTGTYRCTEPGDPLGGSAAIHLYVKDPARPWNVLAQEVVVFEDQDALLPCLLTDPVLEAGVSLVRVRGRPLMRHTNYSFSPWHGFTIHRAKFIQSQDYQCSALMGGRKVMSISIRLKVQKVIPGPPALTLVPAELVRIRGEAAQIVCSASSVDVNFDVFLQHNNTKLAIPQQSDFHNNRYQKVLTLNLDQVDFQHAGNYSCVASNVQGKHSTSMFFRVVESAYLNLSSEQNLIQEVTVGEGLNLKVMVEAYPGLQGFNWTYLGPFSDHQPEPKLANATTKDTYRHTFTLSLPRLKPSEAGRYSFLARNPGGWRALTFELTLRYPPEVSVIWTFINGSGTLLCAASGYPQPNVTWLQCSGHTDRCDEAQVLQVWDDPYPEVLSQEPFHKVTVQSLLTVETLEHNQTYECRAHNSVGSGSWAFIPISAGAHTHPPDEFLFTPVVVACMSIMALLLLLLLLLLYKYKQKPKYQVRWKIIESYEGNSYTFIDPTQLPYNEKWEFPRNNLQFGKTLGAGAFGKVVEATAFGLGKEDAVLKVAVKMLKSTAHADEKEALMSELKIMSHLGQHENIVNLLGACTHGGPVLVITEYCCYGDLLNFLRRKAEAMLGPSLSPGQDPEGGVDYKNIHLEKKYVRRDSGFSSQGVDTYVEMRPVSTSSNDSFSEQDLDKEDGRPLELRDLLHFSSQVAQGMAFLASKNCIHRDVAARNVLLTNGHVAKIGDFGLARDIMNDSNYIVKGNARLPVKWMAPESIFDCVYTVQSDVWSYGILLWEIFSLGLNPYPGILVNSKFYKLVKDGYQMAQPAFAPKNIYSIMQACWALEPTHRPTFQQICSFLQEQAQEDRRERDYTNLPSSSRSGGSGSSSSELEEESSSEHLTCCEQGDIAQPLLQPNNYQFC
Chain of Kdr (P35968 20-1356): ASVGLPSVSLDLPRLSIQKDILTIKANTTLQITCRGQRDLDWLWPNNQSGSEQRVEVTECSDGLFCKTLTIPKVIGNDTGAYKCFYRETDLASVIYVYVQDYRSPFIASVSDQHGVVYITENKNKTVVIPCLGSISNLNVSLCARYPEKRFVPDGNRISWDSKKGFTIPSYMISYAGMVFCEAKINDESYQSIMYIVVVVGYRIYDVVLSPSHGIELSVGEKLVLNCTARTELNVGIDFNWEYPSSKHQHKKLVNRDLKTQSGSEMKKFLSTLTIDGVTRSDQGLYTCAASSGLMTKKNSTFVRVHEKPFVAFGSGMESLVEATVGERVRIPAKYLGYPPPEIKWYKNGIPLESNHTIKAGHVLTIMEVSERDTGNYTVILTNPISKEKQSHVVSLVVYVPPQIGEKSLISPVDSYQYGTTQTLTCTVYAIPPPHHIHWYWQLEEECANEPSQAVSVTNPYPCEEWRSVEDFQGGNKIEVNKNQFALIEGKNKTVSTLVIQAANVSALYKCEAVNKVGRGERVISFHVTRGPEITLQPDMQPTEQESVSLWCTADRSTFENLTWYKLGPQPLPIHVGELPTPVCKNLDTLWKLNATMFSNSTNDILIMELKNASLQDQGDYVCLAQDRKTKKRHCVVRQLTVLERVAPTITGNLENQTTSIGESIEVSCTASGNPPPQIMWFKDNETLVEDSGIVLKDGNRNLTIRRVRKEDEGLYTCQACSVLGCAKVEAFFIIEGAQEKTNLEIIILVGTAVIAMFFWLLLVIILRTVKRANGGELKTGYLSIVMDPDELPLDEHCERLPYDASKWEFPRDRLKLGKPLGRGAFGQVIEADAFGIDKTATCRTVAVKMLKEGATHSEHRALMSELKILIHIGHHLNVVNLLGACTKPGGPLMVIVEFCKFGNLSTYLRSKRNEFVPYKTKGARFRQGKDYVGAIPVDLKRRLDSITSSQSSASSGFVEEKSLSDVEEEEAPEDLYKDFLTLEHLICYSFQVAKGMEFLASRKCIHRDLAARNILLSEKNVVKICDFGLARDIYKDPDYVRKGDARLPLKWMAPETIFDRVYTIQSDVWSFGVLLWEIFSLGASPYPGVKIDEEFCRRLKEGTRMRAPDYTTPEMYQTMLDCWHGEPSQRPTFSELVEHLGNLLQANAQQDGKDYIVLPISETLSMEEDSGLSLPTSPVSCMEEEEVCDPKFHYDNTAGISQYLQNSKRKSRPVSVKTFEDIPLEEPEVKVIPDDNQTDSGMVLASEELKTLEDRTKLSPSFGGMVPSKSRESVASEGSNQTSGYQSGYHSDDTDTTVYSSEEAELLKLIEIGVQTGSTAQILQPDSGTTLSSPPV
Chain of Kit (P10721 26-976): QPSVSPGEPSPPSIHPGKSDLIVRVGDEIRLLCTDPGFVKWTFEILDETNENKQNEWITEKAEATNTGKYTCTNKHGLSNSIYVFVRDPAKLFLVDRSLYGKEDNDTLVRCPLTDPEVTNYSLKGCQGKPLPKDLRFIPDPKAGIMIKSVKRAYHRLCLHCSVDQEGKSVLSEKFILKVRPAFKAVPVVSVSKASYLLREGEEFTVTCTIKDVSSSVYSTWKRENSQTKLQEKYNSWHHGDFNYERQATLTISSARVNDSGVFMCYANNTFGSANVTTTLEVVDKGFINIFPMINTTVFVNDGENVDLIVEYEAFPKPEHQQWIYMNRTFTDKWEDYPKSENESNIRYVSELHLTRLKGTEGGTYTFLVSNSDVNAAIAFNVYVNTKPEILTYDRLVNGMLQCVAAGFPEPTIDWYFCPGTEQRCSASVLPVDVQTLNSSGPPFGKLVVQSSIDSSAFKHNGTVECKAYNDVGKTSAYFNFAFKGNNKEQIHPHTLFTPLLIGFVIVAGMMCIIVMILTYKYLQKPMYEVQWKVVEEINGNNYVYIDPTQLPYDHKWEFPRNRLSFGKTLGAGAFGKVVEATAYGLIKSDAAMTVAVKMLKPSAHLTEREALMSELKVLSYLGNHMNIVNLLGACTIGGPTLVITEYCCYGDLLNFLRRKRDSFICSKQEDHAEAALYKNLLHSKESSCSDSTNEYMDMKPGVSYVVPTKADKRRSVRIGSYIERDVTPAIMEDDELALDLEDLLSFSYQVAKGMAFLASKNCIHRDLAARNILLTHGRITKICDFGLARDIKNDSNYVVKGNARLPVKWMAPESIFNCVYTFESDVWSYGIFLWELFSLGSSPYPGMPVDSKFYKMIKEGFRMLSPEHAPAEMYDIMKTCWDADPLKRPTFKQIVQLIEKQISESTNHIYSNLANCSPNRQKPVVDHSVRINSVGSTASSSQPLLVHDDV
Chain of B-Raf V600E (P15056 whole entry V600E): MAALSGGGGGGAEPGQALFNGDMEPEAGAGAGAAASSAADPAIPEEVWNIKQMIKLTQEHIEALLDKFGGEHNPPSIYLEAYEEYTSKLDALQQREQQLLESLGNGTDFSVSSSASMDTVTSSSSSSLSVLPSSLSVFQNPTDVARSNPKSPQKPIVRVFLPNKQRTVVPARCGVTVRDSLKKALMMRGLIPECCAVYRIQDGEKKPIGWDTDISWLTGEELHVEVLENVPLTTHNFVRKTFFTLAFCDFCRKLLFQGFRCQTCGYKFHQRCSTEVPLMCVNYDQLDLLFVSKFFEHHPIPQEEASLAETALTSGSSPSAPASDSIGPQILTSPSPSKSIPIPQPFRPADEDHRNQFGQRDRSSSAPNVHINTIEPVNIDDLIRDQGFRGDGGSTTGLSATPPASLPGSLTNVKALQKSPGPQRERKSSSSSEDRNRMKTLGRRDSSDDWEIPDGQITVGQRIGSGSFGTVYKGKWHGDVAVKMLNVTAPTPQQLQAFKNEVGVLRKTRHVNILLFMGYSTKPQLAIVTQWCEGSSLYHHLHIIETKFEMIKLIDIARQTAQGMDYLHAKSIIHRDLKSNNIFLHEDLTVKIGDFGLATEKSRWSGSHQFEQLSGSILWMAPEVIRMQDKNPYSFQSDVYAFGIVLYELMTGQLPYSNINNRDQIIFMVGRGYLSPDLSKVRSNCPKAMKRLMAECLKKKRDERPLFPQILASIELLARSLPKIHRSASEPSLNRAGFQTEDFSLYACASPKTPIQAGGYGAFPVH

A word on the IC50: it is the point on the concentration scale where inhibition reaches its midpoint. With `Fc1ncc(Cl)cc1CNc1ccc(Cc2c[nH]c3ncncc23)c(F)n1` [P-0077, (5-Chloro-2-fluoro-pyridin-3-ylmethyl)-[6-fluoro-5-(7H-pyrrolo[2,3-d]pyrimidin-5-ylmethyl)-pyridin-2-yl]-amine], the IC50 on Fms and at B-Raf V600E was at most 10 µM in each case.
Take `COc1cc(CNc2ccc(Cc3c[nH]c4ncncc34)c(F)n2)c(F)cn1` [P-0021, (5-Fluoro-2-methoxy-pyridin-4-ylmethyl)-[6-fluoro-5-(7H-pyrrolo[2,3-d]pyrimidin-5-ylmethyl)-pyridin-2-yl]-amine]: the IC50 at Fms, at Kdr and at B-Raf V600E was at most 10 µM throughout.
Turning to `Fc1nc(NCc2ccnc(Cl)c2)ccc1Cc1c[nH]c2ncncc12` [P-0076, (2-Chloro-pyridin-4-ylmethyl)-[6-fluoro-5-(7H-pyrrolo[2,3-d]pyrimidin-5-ylmethyl)-pyridin-2-yl]-amine], the IC50 on Fms, at Kdr and on B-Raf V600E was at most 10 µM in each case.
In the case of `COc1cc(CNc2ccc(Cc3c[nH]c4ncncc34)c(F)n2)cc(OC)c1OC` [P-0037, [6-Fluoro-5-(7H-pyrrolo[2,3-d]pyrimidin-5-ylmethyl)-pyridin-2-yl]-(3,4,5-trimethoxy-benzyl)-amine], the IC50 on Fms, at Kdr and on B-Raf V600E was at most 10 µM each time.
Consider `c1cc(CNc2ncc(Cc3c[nH]c4ncncc34)cn2)cc(OC2CCCC2)n1` [P-0087, (2-Cyclopentyloxy-pyridin-4-ylmethyl)-[5-(7H-pyrrolo[2,3-d]pyrimidin-5-ylmethyl)-pyrimidin-2-yl]-amine], for which the IC50 at Fms, at Kdr and at Kit was at most 10 µM throughout.
In the case of `Fc1cnc(Cl)cc1CNc1ccc(Cc2c[nH]c3ncncc23)c(F)n1` [P-0072, (2-Chloro-5-fluoro-pyridin-4-ylmethyl)-[6-fluoro-5-(7H-pyrrolo[2,3-d]pyrimidin-5-ylmethyl)-pyridin-2-yl]-amine], the IC50 at Fms, at Kdr and at B-Raf V600E was at most 10 µM in each case.
For the molecule `CCOc1ncccc1CNc1ncc(Cc2c[nH]c3ncncc23)cn1` [P-0085, (2-Ethoxy-pyridin-3-ylmethyl)-[5-(7H-pyrrolo[2,3-d]pyrimidin-5-ylmethyl)-pyrimidin-2-yl]-amine], the concentration for half-maximal inhibition (IC50) at Fms, at Kdr and at Kit was at most 10 µM each time.
As for `COc1ncccc1CNc1ccc(Cc2c[nH]c3ncncc23)c(F)n1` [P-0026, [6-Fluoro-5-(7H-pyrrolo[2,3-d]pyrimidin-5-ylmethyl)-pyridin-2-yl]-(2-methoxy-pyridin-3-ylmethyl)-amine], the IC50 on Fms, on Kdr and on Kit was at most 10 µM throughout.
With `N#Cc1cc(CNc2ccc(Cc3c[nH]c4ncncc34)c(F)n2)ccn1` [P-0073, 4-{[6-Fluoro-5-(7H-pyrrolo[2,3-d]pyrimidin-5-ylmethyl)-pyridin-2-ylamino]-methyl}-pyridine-2-carbonitrile], the IC50 on Fms, on Kdr and on B-Raf V600E was at most 10 µM in each case.
Turning to `COc1ccc(CNc2ncc(Cc3c[nH]c4ncncc34)cc2C)cn1` [P-0012, (6-Methoxy-pyridin-3-ylmethyl)-[3-methyl-5-(7H-pyrrolo[2,3-d]pyrimidin-5-ylmethyl)-pyridin-2-yl]-amine], the IC50 on Fms, on Kdr and on Kit was at most 10 µM in each case.
Take `COc1cc(F)cc(CNc2ccc(Cc3c[nH]c4ncncc34)c(F)n2)c1` [P-0083, (3-Fluoro-5-methoxy-benzyl)-[6-fluoro-5-(7H-pyrrolo[2,3-d]pyrimidin-5-ylmethyl)-pyridin-2-yl]-amine]: the half-inhibitory concentration (IC50) on Fms, at Kdr and on Kit was at most 10 µM in each case.
On to `Fc1nc(NCc2ccc(Cl)cn2)ccc1Cc1c[nH]c2ncncc12` [P-0027, (5-Chloro-pyridin-2-ylmethyl)-[6-fluoro-5-(7H-pyrrolo[2,3-d]pyrimidin-5-ylmethyl)-pyridin-2-yl]-amine], for which the half-inhibitory concentration (IC50) on Fms, on Kdr and at Kit was at most 10 µM each time.
`CS(=O)(=O)c1cc(Cl)ccc1CNc1ccc(Cc2c[nH]c3ncncc23)c(F)n1` [P-0060, (4-Chloro-2-methanesulfonyl-benzyl)-[6-fluoro-5-(7H-pyrrolo[2,3-d]pyrimidin-5-ylmethyl)-pyridin-2-yl]-amine]: the IC50 at Fms, on Kdr and at B-Raf V600E was at most 10 µM each time.
Regarding `COc1ccc(CNc2ncc(Cc3c[nH]c4ncncc34)cn2)cn1` [P-0015, (6-Methoxy-pyridin-3-ylmethyl)-[5-(7H-pyrrolo[2,3-d]pyrimidin-5-ylmethyl)-pyrimidin-2-yl]-amine], the IC50 at Fms, on Kdr and on Kit was at most 10 µM throughout.
For `c1cc(CNc2ncc(Cc3c[nH]c4ncncc34)cn2)cc(N2CCOCC2)n1` [P-0036, (2-Morpholin-4-yl-pyridin-4-ylmethyl)-[5-(7H-pyrrolo[2,3-d]pyrimidin-5-ylmethyl)-pyrimidin-2-yl]-amine], the IC50 on Fms, at Kdr and on Kit was at most 10 µM each time.
On to `Fc1cncc(CNc2ccc(Cc3c[nH]c4ncncc34)c(F)n2)c1` [P-0050, (5-Fluoro-pyridin-3-ylmethyl)-[6-fluoro-5-(7H-pyrrolo[2,3-d]pyrimidin-5-ylmethyl)-pyridin-2-yl]-amine], for which the half-inhibitory concentration (IC50) on Fms and on B-Raf V600E was at most 10 µM in each case.
For the molecule `Fc1nc(NCc2cnccc2C(F)(F)F)ccc1Cc1c[nH]c2ncncc12` [P-0018, [6-Fluoro-5-(7H-pyrrolo[2,3-d]pyrimidin-5-ylmethyl)-pyridin-2-yl]-(4-trifluoromethyl-pyridin-3-ylmethyl)-amine], the 50% inhibitory concentration (IC50) at Fms, at Kdr and on Kit was at most 10 µM in each case.
In the case of `COc1cncc(CNc2ccc(Cc3c[nH]c4ncncc34)c(F)n2)c1` [P-0040, [6-Fluoro-5-(7H-pyrrolo[2,3-d]pyrimidin-5-ylmethyl)-pyridin-2-yl]-(5-methoxy-pyridin-3-ylmethyl)-amine], the IC50 at Fms and at B-Raf V600E was at most 10 µM each time.
As for `c1cc(CNc2ncc(Cc3c[nH]c4ncncc34)cn2)nc(N2CCOCC2)c1` [P-0031, (6-Morpholin-4-yl-pyridin-2-ylmethyl)-[5-(7H-pyrrolo[2,3-d]pyrimidin-5-ylmethyl)-pyrimidin-2-yl]-amine], the IC50 on Fms, at Kdr and at Kit was at most 10 µM in each case.
Consider `COc1cc(CNc2ccc(Cc3c[nH]c4ncncc34)c(F)n2)ccn1` [P-0023, [6-Fluoro-5-(7H-pyrrolo[2,3-d]pyrimidin-5-ylmethyl)-pyridin-2-yl]-(2-methoxy-pyridin-4-ylmethyl)-amine], for which the IC50 at Fms, on Kdr and on Kit was at most 10 µM each time.
`c1cc(CNc2ncc(Cc3c[nH]c4ncncc34)cn2)nc(N2CCCC2)c1` [P-0032, (6-Pyrrolidin-1-yl-pyridin-2-ylmethyl)-[5-(7H-pyrrolo[2,3-d]pyrimidin-5-ylmethyl)-pyrimidin-2-yl]-amine]: the IC50 on Fms, at Kdr and at Kit was at most 10 µM throughout.
